In patent US9156796B2, “Benzoimidazole-carboxylic acid amide derivatives as APJ receptor modulators” (SANOFI, priority 2013, dated 2015):
pEC50: −log10 of the molar value.

The compounds below were run against T1, human apelin receptor (Homo sapiens, UniProt P35414) (assay: Determination of agonism on the human apelin receptor by a calcium fluorescence assay (FLIPR)). Settings: HEK293 cells stably transfected with human apelin receptor and Giaq protein, Fluo-4 calcium fluorescence, read-out: EC50 (APJ agonism).
T1 construct: expressed in transfected cells
T1 sequence (P35414 1-380): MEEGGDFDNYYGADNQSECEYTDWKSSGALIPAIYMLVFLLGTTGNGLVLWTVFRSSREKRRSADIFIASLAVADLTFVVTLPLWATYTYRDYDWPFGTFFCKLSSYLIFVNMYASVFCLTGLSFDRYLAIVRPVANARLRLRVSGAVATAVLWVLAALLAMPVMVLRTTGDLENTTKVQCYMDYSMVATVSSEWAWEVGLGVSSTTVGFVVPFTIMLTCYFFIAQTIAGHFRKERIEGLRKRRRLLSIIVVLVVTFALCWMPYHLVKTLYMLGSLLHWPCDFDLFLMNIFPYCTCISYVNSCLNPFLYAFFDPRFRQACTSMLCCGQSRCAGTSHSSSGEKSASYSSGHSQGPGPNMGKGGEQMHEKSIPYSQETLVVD
Type: cell-based
Procedure, shortened: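 Agonist EC50s come from peak intracellular calcium transients recorded by FLIPR Tetra, scaled to the 1 μM apelin-13 maximum per plate. Test system: HEK293 stably transfected with human apelin receptor plus Giaq, Fluo-4-loaded (4 μM, 1 h, 37 °C, pH 7.4 buffer with probenecid); ≥7 concentrations, triplicates.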
For `Cc1ccc(-n2c(Cc3cccs3)nc3cc(C(=O)N[C@@H](CC(C)C)C(=O)O)ccc32)cc1` [Example 115, (S)-4-Methyl-2-[(2-thiophen-2-ylmethyl-1-p-tolyl-1H-benzoimidazole-5-carbonyl)-amino]-pentanoic acid], the pEC50 was 4.46. In the case of `CCC(CC)n1c(Cc2cccs2)nc2cc(C(=O)N[C@@H](CC(C)C)C(=O)NCCc3n[nH]c(=O)[nH]3)ccc21` [Example 406, 1-(1-Ethyl-propyl)-2-thiophen-2-ylmethyl-1H-benzoimidazole-5-carboxylic acid {(S)-3-methyl-1-[2-(5-oxo-4,5-dihydro-1H-[1,2,4]triazol-3-yl)-ethylcarbamoyl]-butyl}-amide], the pEC50 was 5.95. Compound `CCC(CC)n1c(Cc2cccs2)nc2cc(C(=O)N[C@@H](CC(C)C)C(=O)N3CCC(N4CCC(C)CC4)C3)ccc21` (stereo partly drawn) [Example 300, 1-(1-Ethyl-propyl)-2-thiophen-2-ylmethyl-1H-benzoimidazole-5-carboxylic acid {(S)-3-methyl-1-[3-(4-methyl-piperidin-1-yl)-pyrrolidine-1-carbonyl]-butyl}-amide] has a pEC50 of 6.14. `CCC(CC)n1c(Cc2cccs2)nc2cc(C(=O)N[C@@H](CC(C)C)C(=O)NCCCSC)ccc21` [Example 248, 1-(1-Ethyl-propyl)-2-thiophen-2-ylmethyl-1H-benzoimidazole-5-carboxylic acid [(S)-3-methyl-1-(3-methylsulfanyl-propylcarbamoyl)-butyl]-amide] was tested, and the pEC50 was 5.75. In the case of `CCC(CC)n1c(Cc2cccs2)nc2cc(C(=O)N[C@@H](CC(C)C)C(=O)N3CCC(N4CCc5ccccc5C4)CC3)ccc21` [Example 296, 1-(1-Ethyl-propyl)-2-thiophen-2-ylmethyl-1H-benzoimidazole-5-carboxylic acid {(S)-1-[4-(3,4-dihydro-1H-isoquinolin-2-yl)-piperidine-1-carbonyl]-3-methyl-butyl}-amide], the pEC50 was 5.99. In the case of `CCC(CC)n1c(Cc2cccs2)nc2cc(C(=O)N[C@@H](CC(C)C)C(=O)NCCc3nnn[nH]3)ccc21` [Example 400, 1-(1-Ethyl-propyl)-2-thiophen-2-ylmethyl-1H-benzoimidazole-5-carboxylic acid {(S)-3-methyl-1-[2-(1H-tetrazol-5-yl)-ethylcarbamoyl]-butyl}-amide], the pEC50 was 7.15. `CCC(CC)n1c(Cc2cccs2)nc2cc(C(=O)NC(CC)(C(=O)O)c3ccccc3)ccc21` (stereo not drawn) [Example 7, 2-{[1-(1-Ethyl-propyl)-2-thiophen-2-ylmethyl-1H-benzoimidazole-5-carbonyl]-amino}-2-phenyl-butyric acid] gave a pEC50 of 4.35. `CCC(CC)n1c(Cc2cccs2)nc2cc(C(=O)N[C@@H](CC(C)C)C(=O)N3CCC(OC(C)C)CC3)ccc21` [Example 375, 1-(1-Ethyl-propyl)-2-thiophen-2-ylmethyl-1H-benzoimidazole-5-carboxylic acid [(S)-1-(4-isopropoxy-piperidine-1-carbonyl)-3-methyl-butyl]-amide] gave a pEC50 of 5.54. `CCC(CC)n1c(Cc2cccs2)nc2cc(C(=O)N[C@@H](CC(C)C)C(=O)NC3C[C@H]4CC[C@@H](C3)N4C)ccc21` (stereo partly drawn) [Example 273, 1-(1-Ethyl-propyl)-2-thiophen-2-ylmethyl-1H-benzoimidazole-5-carboxylic acid [(S)-3-methyl-1-((1R,5S)-8-methyl-8-aza-bicyclo[3.2.1]oct-3-ylcarbamoyl)-butyl]-amide] gave a pEC50 of 6.67. `CCCCC(CC(=O)O)NC(=O)c1ccc2c(c1)nc(Cc1cccs1)n2C(CC)CC` (stereo not drawn) [Example 45, 3-{[1-(1-Ethyl-propyl)-2-thiophen-2-ylmethyl-1H-benzoimidazole-5-carbonyl]-amino}-heptanoic acid] gave a pEC50 of 6.26. With `CCC(CC)n1c(Cc2cccs2)nc2cc(C(=O)N[C@@H](CC(C)C)C(=O)N(CC)CC3CCCCO3)ccc21` (stereo partly drawn) [Example 396, 1-(1-Ethyl-propyl)-2-thiophen-2-ylmethyl-1H-benzoimidazole-5-carboxylic acid {(S)-1-[ethyl-(tetrahydro-pyran-2-ylmethyl)-carbamoyl]-3-methyl-butyl}-amide] the pEC50 was 5.39. In the case of `CCC(C)Cn1c(Cc2cccs2)nc2cc(C(=O)N[C@@H](CC(C)C)C(=O)O)ccc21` (stereo partly drawn) [Example 113, (S)-4-Methyl-2-{[1-(2-methyl-butyl)-2-thiophen-2-ylmethyl-1H-benzoimidazole-5-carbonyl]-amino}-pentanoic acid], the pEC50 was 4.66. Work on `C[C@@H]1CCCC[C@H]1n1c(Cc2cccs2)nc2cc(C(=O)NC(CC3CCC(C)(C)CC3)C(=O)O)ccc21` (single isomer, unassigned) [Example 446] yielded a pEC50 of 5.67. In the case of `CCC(CC)n1c(Cc2ccco2)nc2cc(C(=O)NC(C)(CCSC)C(=O)O)ccc21` (stereo not drawn) [Example 14, 2-{[1-(1-Ethyl-propyl)-2-furan-2-ylmethyl-1H-benzoimidazole-5-carbonyl]-amino}-2-methyl-4-methylsulfanyl-butyric acid], the pEC50 was 5.87. `CCC(CC)n1c(Cc2cccs2)nc2cc(C(=O)N[C@@H](CC(C)C)C(=O)N(C)Cc3ccc(OC)cc3)ccc21` [Example 372, 1-(1-Ethyl-propyl)-2-thiophen-2-ylmethyl-1H-benzoimidazole-5-carboxylic acid {(S)-1-[(4-methoxy-benzyl)-methyl-carbamoyl]-3-methyl-butyl}-amide] was tested, and the pEC50 was 4.88. `CCC(CC)n1c(Cc2cccs2)nc2cc(C(=O)N[C@@H](CC(C)C)C(=O)N3CC(C)OC(C)C3)ccc21` (stereo partly drawn) [Example 229, 1-(1-Ethyl-propyl)-2-thiophen-2-ylmethyl-1H-benzoimidazole-5-carboxylic acid [(S)-1-(2,6-dimethyl-morpholine-4-carbonyl)-3-methyl-butyl]-amide] showed a pEC50 of 5.71. With `CCCN1CCC(NC(=O)[C@H](CC(C)C)NC(=O)c2ccc3c(c2)nc(Cc2cccs2)n3C(CC)CC)CC1` [Example 285, 1-(1-Ethyl-propyl)-2-thiophen-2-ylmethyl-1H-benzoimidazole-5-carboxylic acid [(S)-3-methyl-1-(1-propyl-piperidin-4-ylcarbamoyl)-butyl]-amide] the pEC50 was 6.53. `CCC(CC)n1c(Cc2cccs2)nc2cc(C(=O)N[C@@H](CC(C)C)C(=O)NCCOc3ccccc3)ccc21` [Example 366, 1-(1-Ethyl-propyl)-2-thiophen-2-ylmethyl-1H-benzoimidazole-5-carboxylic acid [(S)-3-methyl-1-(2-phenoxy-ethylcarbamoyl)-butyl]-amide] was tested, and the pEC50 was 4.78. `CC(C)C[C@H](NC(=O)c1ccc2c(c1)nc(Cc1ccsc1)n2C1CCCCC1)C(=O)O` [Example 152, (S)-2-[(1-Cyclohexyl-2-thiophen-3-ylmethyl-1H-benzoimidazole-5-carbonyl)-amino]-4-methyl-pentanoic acid] was tested, and the pEC50 was 5.40. `CCC(CC)n1c(Cc2cccs2)nc2cc(C(=O)N[C@@H](CC(C)C)C(=O)N3CCC[C@H]3C(=O)O)ccc21` [Example 409, (S)-1-((S)-2-{[1-(1-Ethyl-propyl)-2-thiophen-2-ylmethyl-1H-benzoimidazole-5-carbonyl]-amino}-4-methyl-pentanoyl)-pyrrolidine-2-carboxylic acid] gave a pEC50 of 6.31. With `CCC(CC)n1c(Cc2cccs2)nc2cc(C(=O)N[C@H](Cc3noc(C4CC4)n3)CC(C)C)ccc21` [Example 475, 1-(1-Ethyl-propyl)-2-thiophen-2-ylmethyl-1H-benzoimidazole-5-carboxylic acid [(S)-1-(5-cyclopropyl-[1,2,4]oxadiazol-3-ylmethyl)-3-methyl-butyl]-amide] the pEC50 was 5.55. `CCC(CC)n1c(Cc2cccs2)nc2cc(C(=O)N[C@@H](CC(C)C)C(=O)NCc3nccs3)ccc21` [Example 250, 1-(1-Ethyl-propyl)-2-thiophen-2-ylmethyl-1H-benzoimidazole-5-carboxylic acid {(S)-3-methyl-1-[(thiazol-2-ylmethyl)-carbamoyl]-butyl}-amide] showed a pEC50 of 6.28. In the case of `CCC(CC)n1c(Cc2cccs2)nc2cc(C(=O)N[C@@H](CC(C)C)C(=O)NCC3CCN(CCc4ccccc4)C3)ccc21` (stereo partly drawn) [Example 291, 1-(1-Ethyl-propyl)-2-thiophen-2-ylmethyl-1H-benzoimidazole-5-carboxylic acid {(S)-3-methyl-1-[(1-phenethyl-pyrrolidin-3-ylmethyl)-carbamoyl]-butyl}-amide], the pEC50 was 6.39. `CCC(CC)n1c(Cc2cccs2)nc2cc(C(=O)N[C@@H](CC(C)C)C(=O)Nc3ccc(N(CC)CC)cc3)ccc21` [Example 242, 1-(1-Ethyl-propyl)-2-thiophen-2-ylmethyl-1H-benzoimidazole-5-carboxylic acid [(S)-1-(4-diethylamino-phenylcarbamoyl)-3-methyl-butyl]-amide] was tested, and the pEC50 was 5.23. `CCCC(NC(=O)c1ccc2c(c1)nc(Cc1cccs1)n2C(CC)CC)C(C)(C)C(=O)O` (single isomer, unassigned) [Example 466] was tested, and the pEC50 was 5.33. `C[C@H]1CCCC[C@@H]1n1c(Cc2cccs2)nc2cc(C(=O)NC(CC(=O)O)CC3CCCCC3)ccc21` (stereo partly drawn) [Example 52, 4-Cyclohexyl-3-{[1-((1S,2S)-2-methyl-cyclohexyl)-2-thiophen-2-ylmethyl-1H-benzoimidazole-5-carbonyl]-amino}-butyric acid] was tested, and the pEC50 was 4.91. With `CCC(CC)n1c(Cc2cccs2)nc2cc(C(=O)NC(CC(=O)O)CC3CCCCC3)ccc21` (stereo not drawn) [Example 46, 4-Cyclohexyl-3-{[1-(1-ethyl-propyl)-2-thiophen-2-ylmethyl-1H-benzoimidazole-5-carbonyl]-amino}-butyric acid] the pEC50 was 6.95.
